Laboratory results taken from patent US9833497B2, “Human originated EGF domain proteins and use of the same” (CHENGDU SOURCEBIO LIMITED-LIABILITY COMPANY, priority 2013, dated 2017).

What was measured:
Type in all cases: cell-based
Enterobacter cloacae = assay: MIC against Gram-negative bacteria: Enterobacter cloacae; conditions: 5×10^5 CFU/mL
In short: (§1)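 Bacteria grown in LB at 37° C with shaking to McFarland 0.5, pelleted and resuspended in fresh LB, then seeded at 5×10^5 CFU/mL per well. Purified recombinant human EGF domain proteins were two-fold serially diluted in triplicate and plates shaken at 37° C, 175 rpm. MIC is the lowest protein concentration with no bacterial growth.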

Citrobacter diversus = assay: MIC against Gram-negative bacteria: Citrobacter diversus; conditions: 5×10^5 CFU/mL
In short: as §1

E. coli BL21 = assay: MIC against Gram-negative bacteria: E. coli BL21; conditions: 5×10^5 CFU/mL
In short: as §1

Aeromonas hydrophila = assay: MIC against Gram-negative bacteria: Aeromonas hydrophila; conditions: 5×10^5 CFU/mL
In short: as §1

Proteus mirabilis = assay: MIC against Gram-negative bacteria: Proteus mirabilis; conditions: 5×10^5 CFU/mL
In short: as §1

Moraxella catarrhalis = assay: MIC against Gram-negative bacteria: Moraxella catarrhalis; conditions: 5×10^5 CFU/mL
In short: as §1

Pseudomonas aeruginosa = assay: MIC against Gram-negative bacteria: Pseudomonas aeruginosa; conditions: 5×10^5 CFU/mL
In short: as §1

Klebsiella pneumonia = assay: MIC against Gram-negative bacteria: Klebsiella pneumonia; conditions: 5×10^5 CFU/mL
In short: as §1

E. coli DH5α = assay: Antibacterial activity: MIC and growth curve against E. coli DH5α in 96-well plate; conditions: minimal inhibitory concentration against E. coli DH5α; 96-well plate, 5×10^5 CFU/mL, 37° C., judged after 8 h
In short: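 Log-phase bacteria (OD600 ~0.5) resuspended in LB at 5×10^5 CFU/mL, exposed to recombinant protein at 50, 25, 12.5 μg/mL final in triplicate, 37 °C shaking at 175 rpm. OD600 read every 30 min; MIC is lowest concentration showing no growth.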

Proteus vulgaris = assay: MIC against Gram-negative bacteria: Proteus vulgaris; conditions: 5×10^5 CFU/mL
In short: as §1

Serratia marcescens = assay: MIC against Gram-negative bacteria: Serratia marcescens; conditions: 5×10^5 CFU/mL
In short: as §1

[1] = Enterobacter cloacae, 96-well plate, 37° C., 10 h
[2] = Citrobacter diversus, 96-well plate, 37° C., 10 h
[3] = E. coli BL21, 96-well plate, 37° C., 10 h
[4] = Aeromonas hydrophila, 96-well plate, 37° C., 10 h
[5] = Proteus mirabilis, 96-well plate, 37° C., 10 h
[6] = Moraxella catarrhalis, 96-well plate, 37° C., 10 h
[7] = Pseudomonas aeruginosa, 96-well plate, 37° C., 10 h
[8] = Klebsiella pneumonia, 96-well plate, 37° C., 10 h
[9] = Proteus vulgaris, 96-well plate, 37° C., 10 h
[10] = Serratia marcescens, 96-well plate, 37° C., 10 h
[11] = E. cloacae, 10 h cultivation at 37° C.
[12] = C. diversus, 10 h cultivation at 37° C.
[13] = E. coli BL21, 10 h cultivation at 37° C.
[14] = A. hydrophila, 10 h cultivation at 37° C.
[15] = P. mirabilis, 10 h cultivation at 37° C.
[16] = M. catarrhalis, 10 h cultivation at 37° C.
[17] = P. aeruginosa, 10 h cultivation at 37° C.
[18] = K. pneumonia, 10 h cultivation at 37° C.
[19] = P. vulgaris, 10 h cultivation at 37° C.
[20] = S. marcescens, 10 h cultivation at 37° C.
[21] = 10 h cultivation at 37° C., two-fold serial dilution

PRT37 (IGVDCSDGFNGGCEQLCLQQMAPFPDDPTLYNILMFCGCIEDYKLGVDGRSCQ; listed as Homo sapiens)
MIC (μg/mL) E. cloacae (Enterobacter cloacae; [1]): 12.5 µg/mL | MIC (μg/mL) C. diversus (Citrobacter diversus; [2]): 25 µg/mL | MIC (μg/mL) E. coli BL21 (E. coli BL21; [3]): 50 µg/mL | MIC (μg/mL) A. hydrophila (Aeromonas hydrophila; [4]): 12.5 µg/mL | MIC (μg/mL) P. mirabilis (Proteus mirabilis; [5]): 12.5 µg/mL | MIC (μg/mL) M. catarrhalis (Moraxella catarrhalis; [6]): 12.5 µg/mL | MIC (μg/mL) P. aeruginosa (Pseudomonas aeruginosa; [7]): 25 µg/mL | MIC (μg/mL) K. pneumonia (Klebsiella pneumonia; [8]): 25 µg/mL | MIC (E. coli DH5α): 25 µg/mL | MIC (μg/mL) P. vulgaris (Proteus vulgaris; [9]): 25 µg/mL | MIC (μg/mL) S. marcescens (Serratia marcescens; [10]): 12.5 µg/mL

PRT870 (CECFGHSNRCSYIDLLNTVICVSCKHNTRGQHCELCRLGYFRNASAQLDDENVCIE; listed as Homo sapiens)
MIC (μg/mL) E. cloacae (Enterobacter cloacae; [11]): 25 µg/mL | MIC (μg/mL) C. diversus (Citrobacter diversus; [12]): 25 µg/mL | MIC (μg/mL) E. coli BL21 (E. coli BL21; [13]): 50 µg/mL | MIC (μg/mL) A. hydrophila (Aeromonas hydrophila; [14]): 12.5 µg/mL | MIC (μg/mL) P. mirabilis (Proteus mirabilis; [15]): 25 µg/mL | MIC (μg/mL) M. catarrhalis (Moraxella catarrhalis; [16]): 50 µg/mL | MIC (μg/mL) P. aeruginosa (Pseudomonas aeruginosa; [17]): 100 µg/mL | MIC (μg/mL) K. pneumonia (Klebsiella pneumonia; [18]): 50 µg/mL | MIC (E. coli DH5α): 12.5 µg/mL | MIC (μg/mL) P. vulgaris (Proteus vulgaris; [19]): 12.5 µg/mL | MIC (μg/mL) S. marcescens (Serratia marcescens; [20]): 50 µg/mL

PRT44 (LYAQVSQSKPCERTGSCFSGRCVNSTCLCDPGWVGDQCQ; listed as Homo sapiens)
MIC (μg/mL) E. cloacae (Enterobacter cloacae; [1]): 12.5 µg/mL | MIC (μg/mL) C. diversus (Citrobacter diversus; [2]): 12.5 µg/mL | MIC (μg/mL) E. coli BL21 (E. coli BL21; [3]): 12.5 µg/mL | MIC (μg/mL) A. hydrophila (Aeromonas hydrophila; [4]): 25 µg/mL | MIC (μg/mL) P. mirabilis (Proteus mirabilis; [5]): 50 µg/mL | MIC (μg/mL) M. catarrhalis (Moraxella catarrhalis; [6]): 25 µg/mL | MIC (μg/mL) P. aeruginosa (Pseudomonas aeruginosa; [7]): 25 µg/mL | MIC (μg/mL) K. pneumonia (Klebsiella pneumonia; [8]): 12.5 µg/mL | MIC (E. coli DH5α): 12.5 µg/mL | MIC (μg/mL) P. vulgaris (Proteus vulgaris; [9]): 25 µg/mL | MIC (μg/mL) S. marcescens (Serratia marcescens; [10]): 12.5 µg/mL

PRT262 (CLIHHGGCHIHAECIPTGPQQVSCSCREGYSGDGIRTC; listed as Homo sapiens)
MIC (μg/mL) E. cloacae (Enterobacter cloacae; [11]): 12.5 µg/mL | MIC (μg/mL) C. diversus (Citrobacter diversus; [12]): 50 µg/mL | MIC (μg/mL) E. coli BL21 (E. coli BL21; [13]): 25 µg/mL | MIC (μg/mL) A. hydrophila (Aeromonas hydrophila; [14]): 25 µg/mL | MIC (μg/mL) P. mirabilis (Proteus mirabilis; [15]): 12.5 µg/mL | MIC (μg/mL) M. catarrhalis (Moraxella catarrhalis; [16]): 25 µg/mL | MIC (μg/mL) P. aeruginosa (Pseudomonas aeruginosa; [17]): 50 µg/mL | MIC (μg/mL) K. pneumonia (Klebsiella pneumonia; [18]): 25 µg/mL | MIC (E. coli DH5α): 12.5 µg/mL | MIC (μg/mL) P. vulgaris (Proteus vulgaris; [19]): 25 µg/mL | MIC (μg/mL) S. marcescens (Serratia marcescens; [20]): 12.5 µg/mL

PRT1105 (EIDECWSQPCLNGATCQDALGAYFCDCAPGFLGDHCE; listed as Homo sapiens)
MIC E. cloacae (Enterobacter cloacae; [21]): 50 µg/mL | MIC C. diversus (Citrobacter diversus; [21]): 12.5 µg/mL | MIC E. coli BL21 (E. coli BL21; [21]): 25 µg/mL | MIC A. hydrophila (Aeromonas hydrophila; [21]): 25 µg/mL | MIC P. mirabilis (Proteus mirabilis; [21]): 50 µg/mL | MIC M. catarrhalis (Moraxella catarrhalis; [21]): 25 µg/mL | MIC P. aeruginosa (Pseudomonas aeruginosa; [21]): 50 µg/mL | MIC K. pneumonia (Klebsiella pneumonia; [21]): 12.5 µg/mL | MIC (E. coli DH5α): 12.5 µg/mL | MIC P. vulgaris (Proteus vulgaris; [21]): 12.5 µg/mL | MIC S. marcescens (Serratia marcescens; [21]): 50 µg/mL

PRT1370 (GVRSCPGDCRGRGRCESGRCMCWPGYTGRDC; listed as Homo sapiens)
MIC against E. cloacae (Enterobacter cloacae; Enterobacter cloacae, 10 h cultivation at 37° C.): 25 µg/mL | MIC against C. diversus (Citrobacter diversus; Citrobacter diversus, 10 h cultivation at 37° C.): 12.5 µg/mL | MIC against E. coli BL21 (E. coli BL21; [13]): 12.5 µg/mL | MIC against A. hydrophila (Aeromonas hydrophila; Aeromonas hydrophila, 10 h cultivation at 37° C.): 25 µg/mL | MIC against P. mirabilis (Proteus mirabilis; Proteus mirabilis, 10 h cultivation at 37° C.): 50 µg/mL | MIC against M. catarrhalis (Moraxella catarrhalis; Moraxella catarrhalis, 10 h cultivation at 37° C.): 25 µg/mL | MIC against P. aeruginosa (Pseudomonas aeruginosa; Pseudomonas aeruginosa, 10 h cultivation at 37° C.): 25 µg/mL | MIC against K. pneumonia (Klebsiella pneumonia; Klebsiella pneumonia, 10 h cultivation at 37° C.): 50 µg/mL | MIC (E. coli DH5α): 25 µg/mL | MIC against P. vulgaris (Proteus vulgaris; Proteus vulgaris, 10 h cultivation at 37° C.): 25 µg/mL | MIC against S. marcescens (Serratia marcescens; Serratia marcescens, 10 h cultivation at 37° C.): 12.5 µg/mL

PRT40 (KGIDCSDGFNGGCEQLCLQQTLPLPYDATSSTIFMFCGCVEEYKLAPDGKSCL; listed as Homo sapiens)
MIC (μg/mL) E. cloacae (Enterobacter cloacae; [1]): 25 µg/mL | MIC (μg/mL) C. diversus (Citrobacter diversus; [2]): 25 µg/mL | MIC (μg/mL) E. coli BL21 (E. coli BL21; [3]): 12.5 µg/mL | MIC (μg/mL) A. hydrophila (Aeromonas hydrophila; [4]): 50 µg/mL | MIC (μg/mL) P. mirabilis (Proteus mirabilis; [5]): 12.5 µg/mL | MIC (μg/mL) M. catarrhalis (Moraxella catarrhalis; [6]): 12.5 µg/mL | MIC (μg/mL) P. aeruginosa (Pseudomonas aeruginosa; [7]): 25 µg/mL | MIC (μg/mL) K. pneumonia (Klebsiella pneumonia; [8]): 12.5 µg/mL | MIC (E. coli DH5α): 25 µg/mL | MIC (μg/mL) P. vulgaris (Proteus vulgaris; [9]): 25 µg/mL | MIC (μg/mL) S. marcescens (Serratia marcescens; [10]): 12.5 µg/mL
